Measured values: article PMC6327989 (Journal of Enzyme Inhibition and Medicinal Chemistry, 2019)

These molecules were tested against recombinant Sphingomyelinase D (SMase D) from L. laeta venom (Loxosceles laeta, UniProt Q8I914) (assay: biochemical).
Chain of recombinant Sphingomyelinase D (SMase D) from L. laeta venom (Q8I914 27-311 limits assumed): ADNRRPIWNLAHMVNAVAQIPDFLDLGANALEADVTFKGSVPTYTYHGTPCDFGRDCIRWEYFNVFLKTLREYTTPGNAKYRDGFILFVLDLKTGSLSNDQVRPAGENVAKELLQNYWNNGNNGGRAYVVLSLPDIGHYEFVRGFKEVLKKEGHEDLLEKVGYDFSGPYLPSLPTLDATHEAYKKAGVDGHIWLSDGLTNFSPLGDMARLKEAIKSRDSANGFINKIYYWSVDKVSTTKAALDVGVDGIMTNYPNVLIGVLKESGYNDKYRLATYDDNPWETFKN

In order of falling Ki:
1. Cc1cc(OS(=O)(=O)c2ccc(Cl)cc2)cc2c1C(=O)/C(=C/c1cccnc1)O2 [compound 6, 4-methyl-3-oxo-2–(3-pyridylmethylene)benzo[3,4-b]furan-6-yl 4-chlorobenzenesulphonate]  590 ± 230 nM
2. Cc1ccc(S(=O)(=O)Oc2cc(N)nc(SCc3ccc(C#N)cc3)n2)cc1 [compound 1, 6-amino-2-((4-cyanobenzyl)thio)pyrimidin-4-yl 4-methylbenzenesulphonate]  540 ± 130 nM
3. Cc1[nH]c2ccccc2c1/C=N/NS(=O)(=O)c1ccc(Br)cc1 [compound 5, 4-bromo-N-[(E)-(2-methyl-1H-indol-3-yl)methyleneamino]benzenesulfonamide]  490 ± 100 nM
